Assay results as given in patent US7531646B2, “β-D-ribosidase activity indicators with a chromogenic substrate” (priority 2001, dated 2009).
Counter-ions that a name gives are not always drawn.

Assays:
Assay in all cases: Substrate hydrolysis on Columbia agar
Assay type in all cases: cell-based
Vibrio hollisae = Vibrio hollisae NCTC 11640; 300 mg/l; 18 hours
Vibrio parahaemolyticus = conditions: 300 mg/l, 18 hours
Aeromonas sobria = Aeromonas sobria NCTC 11215; 300 mg/l; 18 hours
P. vulgaris = conditions: 300 mg/l, 18 hours
Vibrio anguillarum = Vibrio anguillarum NCTC 12159; 300 mg/l; 18 hours
Salmonella oranienburg = Salmonella oranienburg SAX 56; 300 mg/l; 18 hours
A. lwoffii = A. lwoffii ATCC 15309; 300 mg/l; 18 hours
Streptococcus pneumoniae = Streptococcus pneumoniae NCTC 7465; 300 mg/l; 18 hours
Shigella dysenteriae = conditions: 300 mg/l, 18 hours
C. freundii = conditions: 300 mg/l, 18 hours
Enterococcus gellinarum = Enterococcus gellinarum NCTC 11428; 300 mg/l; 18 hours
Salmonella alachia = Salmonella alachia SAX 60; 300 mg/l; 18 hours
From the text: (§1) This was achieved using a densitometer.
(§2) The same method was used as in Example 1.

Shigella boydii = conditions: 300 mg/l, 18 hours
From the text: as §1, §2

Shigella sonnei = conditions: 300 mg/l, 18 hours
From the text: as §1, §2

Vibrio mimicus = Vibrio mimicus NCTC 11435; 300 mg/l; 18 hours
From the text: as §1, §2

Shigella flexneri = conditions: 300 mg/l, 18 hours
From the text: as §1, §2

Salmonella motevideo = Salmonella motevideo SAX 55; 300 mg/l; 18 hours
From the text: as §1, §2

Bacillus licusniforms = Bacillus licusniforms NCIMB 9375; 300 mg/l; 18 hours
A. baumanii = A. baumanii ATCC 19606; 300 mg/l; 18 hours
Salmonella typhi = Salmonella typhi NCTC 8385; 300 mg/l; 18 hours
Vibrio harveyi = Vibrio harveyi NCTC 11346; 300 mg/l; 18 hours
Listeria seerigeri = Listeria seerigeri PHLS wild; 300 mg/l; 18 hours
Streptococcus mitis = Streptococcus mitis NCTC 12261; 300 mg/l; 18 hours
P. penneri = P. penneri PPE 1; 300 mg/l; 18 hours
[1] = test system: Haemolytic streptococcus B; conditions: 300 mg/l, 18 hours
P. mirabilis = conditions: 300 mg/l, 18 hours
Serratia marcescens = Serratia marcescens NCTC 10211; 300 mg/l; 18 hours
Salmonella panama = Salmonella panama SAX 58; 300 mg/l; 18 hours
Streptococcus salivarius = Streptococcus salivarius NCTC 8618; 300 mg/l; 18 hours
P. rettgeri = P. rettgeri NCTC 7475; 300 mg/l; 18 hours
Salmonella hadar = Salmonella hadar SAX 57; 300 mg/l; 18 hours
Streptococcus gordonii = Streptococcus gordonii NCTC 7865; 300 mg/l; 18 hours
Aeromonas caviae = test system: Aeromonas caviae; set-up: key to the marks not given beside the values; conditions: Aeromonas caviae NCTC 10852; 300 mg/l; 18 hours
[2] = Vibrio parahaemolyticus NCTC 10441
[3] = Vibrio parahaemolyticus NCTC 10884
[4] = Vibrio parahaemolyticus NCTC 10903
[5] = Vibrio parahaemolyticus NCTC 11344
[6] = Vibrio parahaemolyticus NCTC 12205
[7] = Shigella dysenteriae (type 2) NCTC 9952
[8] = Shigella dysenteriae (type 3) NCTC 9720
[9] = Shigella dysenteriae (type 4) NCTC 9759

## 3′,4′-dihydroxyflavone-4′-β-D-glucopyranoside sodium salt [DHF-glucoside]
Vibrio hollisae
  Hydrolysis by Gram negative bacteria: −
Vibrio parahaemolyticus; [2]
  Hydrolysis by Gram negative bacteria: −
Vibrio parahaemolyticus; [3]
  Hydrolysis by Gram negative bacteria: −
Vibrio parahaemolyticus; [4]
  Hydrolysis by Gram negative bacteria: −
Vibrio parahaemolyticus; [5]
  Hydrolysis by Gram negative bacteria: −
Vibrio parahaemolyticus; [6]
  Hydrolysis by Gram negative bacteria: −
Aeromonas sobria
  Hydrolysis by Gram negative bacteria: −
P. vulgaris; P. vulgaris PVU 2
  Hydrolysis by Gram negative bacteria: −
P. vulgaris; P. vulgaris PVU 4
  Hydrolysis by Gram negative bacteria: −
P. vulgaris; P. vulgaris PVU 5
  Hydrolysis by Gram negative bacteria: −
Vibrio anguillarum
  Hydrolysis by Gram negative bacteria: −
Salmonella oranienburg
  Hydrolysis by Gram negative bacteria: −
A. lwoffii
  Hydrolysis by Gram negative bacteria: −
Streptococcus pneumoniae
  Hydrolysis by Gram positive organisms: −
Shigella dysenteriae; [7]
  Hydrolysis by Gram negative bacteria: −
Shigella dysenteriae; [8]
  Hydrolysis by Gram negative bacteria: −
Shigella dysenteriae; [9]
  Hydrolysis by Gram negative bacteria: −
C. freundii; C. freundii CFR 1
  Hydrolysis by Gram negative bacteria: +
C. freundii; C. freundii CFR 2
  Hydrolysis by Gram negative bacteria: −
C. freundii; C. freundii CFR 3
  Hydrolysis by Gram negative bacteria: −
C. freundii; C. freundii CFR 4
  Hydrolysis by Gram negative bacteria: +
C. freundii; C. freundii NCTC 9750
  Hydrolysis by Gram negative bacteria: +
Enterococcus gellinarum
  Hydrolysis by Gram positive organisms: ++
Salmonella alachia
  Hydrolysis by Gram negative bacteria: −
Shigella boydii; Shigella boydii NCTC 9327
  Hydrolysis by Gram negative bacteria: −
Shigella boydii; Shigella boydii NCTC 9732
  Hydrolysis by Gram negative bacteria: −
Shigella boydii; Shigella boydii NCTC 9850
  Hydrolysis by Gram negative bacteria: −
Shigella sonnei; Shigella sonnei NCTC 8219
  Hydrolysis by Gram negative bacteria: −
Shigella sonnei; Shigella sonnei NCTC 8574
  Hydrolysis by Gram negative bacteria: −
Shigella sonnei; Shigella sonnei NCTC 8586
  Hydrolysis by Gram negative bacteria: −
Shigella sonnei; Shigella sonnei NCTC 9774
  Hydrolysis by Gram negative bacteria: −
Shigella sonnei; Shigella sonnei NCTC 10352
  Hydrolysis by Gram negative bacteria: −
Vibrio mimicus
  Hydrolysis by Gram negative bacteria: −
Shigella flexneri; Shigella flexneri NCTC 8192
  Hydrolysis by Gram negative bacteria: −
Shigella flexneri; Shigella flexneri NCTC 9723
  Hydrolysis by Gram negative bacteria: −
Shigella flexneri; Shigella flexneri NCTC 9780
  Hydrolysis by Gram negative bacteria: −
Salmonella motevideo
  Hydrolysis by Gram negative bacteria: −
Bacillus licusniforms
  Hydrolysis by Gram positive organisms: +
A. baumanii
  Hydrolysis by Gram negative bacteria: −
Salmonella typhi
  Hydrolysis by Gram negative bacteria: −
Vibrio harveyi
  Hydrolysis by Gram negative bacteria: +
Listeria seerigeri
  Hydrolysis by Gram positive organisms: ++
Streptococcus mitis
  Hydrolysis by Gram positive organisms: −
P. penneri
  Hydrolysis by Gram negative bacteria: −
[1]; Haemolytic streptococcus B 1
  Hydrolysis by Gram positive organisms: −
[1]; Haemolytic streptococcus B 2
  Hydrolysis by Gram positive organisms: −
[1]; Haemolytic streptococcus B 3
  Hydrolysis by Gram positive organisms: −
P. mirabilis; P. mirabilis NCTC 10975
  Hydrolysis by Gram negative bacteria: −
P. mirabilis; P. mirabilis PMI 1
  Hydrolysis by Gram negative bacteria: −
P. mirabilis; P. mirabilis PMI 2
  Hydrolysis by Gram negative bacteria: −
Serratia marcescens
  Hydrolysis by Gram negative bacteria: +
Salmonella panama
  Hydrolysis by Gram negative bacteria: −
Streptococcus salivarius
  Hydrolysis by Gram positive organisms: ++
P. rettgeri
  Hydrolysis by Gram negative bacteria: +
Salmonella hadar
  Hydrolysis by Gram negative bacteria: −
Streptococcus gordonii
  Hydrolysis by Gram positive organisms: −
Aeromonas caviae
  Hydrolysis by Gram negative bacteria: ++

## O=c1cc(-c2ccc(OC3OC(CO)C(O)C3O)c(O)c2)oc2ccccc12 [DHF-riboside, 3′,4′-dihydroxyflavone-4′-β-D-ribofuranoside Sodium Salt]
Vibrio hollisae
  Hydrolysis by Gram negative bacteria: −
Vibrio parahaemolyticus; [2]
  Hydrolysis by Gram negative bacteria: −
Vibrio parahaemolyticus; [3]
  Hydrolysis by Gram negative bacteria: −
Vibrio parahaemolyticus; [4]
  Hydrolysis by Gram negative bacteria: −
Vibrio parahaemolyticus; [5]
  Hydrolysis by Gram negative bacteria: −
Vibrio parahaemolyticus; [6]
  Hydrolysis by Gram negative bacteria: −
Aeromonas sobria
  Hydrolysis by Gram negative bacteria: 0
P. vulgaris; P. vulgaris PVU 2
  Hydrolysis by Gram negative bacteria: −
P. vulgaris; P. vulgaris PVU 4
  Hydrolysis by Gram negative bacteria: −
P. vulgaris; P. vulgaris PVU 5
  Hydrolysis by Gram negative bacteria: −
Vibrio anguillarum
  Hydrolysis by Gram negative bacteria: −
Salmonella oranienburg
  Hydrolysis by Gram negative bacteria: ++
A. lwoffii
  Hydrolysis by Gram negative bacteria: −
Streptococcus pneumoniae
  Hydrolysis by Gram positive organisms: −
Shigella dysenteriae; [7]
  Hydrolysis by Gram negative bacteria: ++
Shigella dysenteriae; [8]
  Hydrolysis by Gram negative bacteria: ++
Shigella dysenteriae; [9]
  Hydrolysis by Gram negative bacteria: ++
C. freundii; C. freundii CFR 1
  Hydrolysis by Gram negative bacteria: ++
C. freundii; C. freundii CFR 2
  Hydrolysis by Gram negative bacteria: ++
C. freundii; C. freundii CFR 3
  Hydrolysis by Gram negative bacteria: ++
C. freundii; C. freundii CFR 4
  Hydrolysis by Gram negative bacteria: ++
C. freundii; C. freundii NCTC 9750
  Hydrolysis by Gram negative bacteria: ++
Enterococcus gellinarum
  Hydrolysis by Gram positive organisms: +
Salmonella alachia
  Hydrolysis by Gram negative bacteria: ++
Shigella boydii; Shigella boydii NCTC 9327
  Hydrolysis by Gram negative bacteria: ++
Shigella boydii; Shigella boydii NCTC 9732
  Hydrolysis by Gram negative bacteria: ++
Shigella boydii; Shigella boydii NCTC 9850
  Hydrolysis by Gram negative bacteria: ++
Shigella sonnei; Shigella sonnei NCTC 8219
  Hydrolysis by Gram negative bacteria: ++
Shigella sonnei; Shigella sonnei NCTC 8574
  Hydrolysis by Gram negative bacteria: ++
Shigella sonnei; Shigella sonnei NCTC 8586
  Hydrolysis by Gram negative bacteria: ++
Shigella sonnei; Shigella sonnei NCTC 9774
  Hydrolysis by Gram negative bacteria: ++
Shigella sonnei; Shigella sonnei NCTC 10352
  Hydrolysis by Gram negative bacteria: ++
Vibrio mimicus
  Hydrolysis by Gram negative bacteria: −
Shigella flexneri; Shigella flexneri NCTC 8192
  Hydrolysis by Gram negative bacteria: ++
Shigella flexneri; Shigella flexneri NCTC 9723
  Hydrolysis by Gram negative bacteria: ++
Shigella flexneri; Shigella flexneri NCTC 9780
  Hydrolysis by Gram negative bacteria: ++
Salmonella motevideo
  Hydrolysis by Gram negative bacteria: ++
Bacillus licusniforms
  Hydrolysis by Gram positive organisms: −
A. baumanii
  Hydrolysis by Gram negative bacteria: −
Salmonella typhi
  Hydrolysis by Gram negative bacteria: ++
Vibrio harveyi
  Hydrolysis by Gram negative bacteria: ++
Listeria seerigeri
  Hydrolysis by Gram positive organisms: −
Streptococcus mitis
  Hydrolysis by Gram positive organisms: −
P. penneri
  Hydrolysis by Gram negative bacteria: −
[1]; Haemolytic streptococcus B 1
  Hydrolysis by Gram positive organisms: −
[1]; Haemolytic streptococcus B 2
  Hydrolysis by Gram positive organisms: −
[1]; Haemolytic streptococcus B 3
  Hydrolysis by Gram positive organisms: −
P. mirabilis; P. mirabilis NCTC 10975
  Hydrolysis by Gram negative bacteria: −
P. mirabilis; P. mirabilis PMI 1
  Hydrolysis by Gram negative bacteria: −
P. mirabilis; P. mirabilis PMI 2
  Hydrolysis by Gram negative bacteria: −
Serratia marcescens
  Hydrolysis by Gram negative bacteria: ++
Salmonella panama
  Hydrolysis by Gram negative bacteria: ++
Streptococcus salivarius
  Hydrolysis by Gram positive organisms: −
P. rettgeri
  Hydrolysis by Gram negative bacteria: +
Salmonella hadar
  Hydrolysis by Gram negative bacteria: ++
Streptococcus gordonii
  Hydrolysis by Gram positive organisms: −
Aeromonas caviae
  Hydrolysis by Gram negative bacteria: ++
